The target in test [1] is Sigma non-opioid intracellular receptor 1 (Rattus norvegicus) (UniProt Q9R0C9). The test is described as follows: IC50 ratio; sigma 2 to sigma 1. The conditions noted are these: Cavia porcellus.
Test [2] shares this target. As to the kind of experiment: IC50 ratio; sigma 1 to sigma 2. The conditions noted are these: Cavia porcellus.
Test [3] addresses Sigma non-opioid intracellular receptor 1 (Rattus norvegicus, UniProt Q9R0C9). The test is described as follows: Evaluated for the binding affinity towards sigma 1 receptor by displacing the radioligand [3H]-SKF- 10047 in whole rat brain membrane. The format is cell membranes.
The next test addresses Sigma 2 receptor. The test is described as follows: Evaluated for the binding affinity towards sigma 2 receptor by displacing the radioligand [3H]DTG in guinea-pig brain cortex. On the set-up: species or system Cavia porcellus.

Chain of Sigma non-opioid intracellular receptor 1 (Q9R0C9 whole entry): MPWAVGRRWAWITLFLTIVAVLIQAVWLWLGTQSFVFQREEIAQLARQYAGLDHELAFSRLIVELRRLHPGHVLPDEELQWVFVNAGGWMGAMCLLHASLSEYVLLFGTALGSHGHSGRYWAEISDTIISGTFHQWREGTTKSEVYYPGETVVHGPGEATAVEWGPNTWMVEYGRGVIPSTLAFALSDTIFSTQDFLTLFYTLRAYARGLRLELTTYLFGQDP
Chain of Sigma non-opioid intracellular receptor 1 (Rattus norvegicus) (Q9R0C9 whole entry): as above

For the compound `COc1cccc2c1CCCC2CCCN1CCCC(C)(C)C1` (stereo in doubt; (-)-22) [listing 1 of 2 here], the Ratio in test [1] came out at 131.
Take `CC1(C)CCCN(CCCCCC2CCCc3ccccc32)C1` (centres undefined): the Ratio in test [2] was more than 100000. Also, the IC50 came out at 1520 nM in test [3] and 0.008 nM on Sigma 2 receptor.
Regarding `COc1ccc2c(c1)CCCC2CCCCCN1CCCC(C)(C)C1` (centres undefined), in test [2], the Ratio came to 21. Moreover, the values for the IC50 (in test [3]; at Sigma 2 receptor) were 0.62 nM and 0.03 nM, respectively.
As for `COc1ccc2c(c1)CCCC2CCCCN1CCCC(C)(C)C1` (centres undefined), the Ratio in test [2] is more than 100000. Moreover, the figures for the IC50 (in test [3]; on Sigma 2 receptor) were 2150 nM and 0.016 nM, respectively.
Turning to `CC1(C)CCCN(CCCC2CCc3ccccc32)C1` (centres undefined), the results for the Ratio in test [1] and in test [2] were 0.6 and 1.5, respectively. Besides, the IC50 in test [3] is 6.9 nM; on Sigma 2 receptor it was 4.5 nM.
As to `COc1ccc2c(c1)C(CCCN1CCCC(C)(C)C1)CCC2` (centres undefined), the Ratio in test [1] was determined as 5. Further, the figures for the IC50 (in test [3]; at Sigma 2 receptor) were 22 nM and 109 nM, respectively.
As for `COc1cccc2c1CCCC2CCCN1CCCC(C)(C)C1` (racemic) [listing 1 of 2 here], the Ratio in test [1] was 287.
Regarding `COc1cccc2c1CCCC2CCCN1CCCC(C)(C)C1` (single isomer, unassigned; (+)) [listing 1 of 2 here], in test [1], the Ratio was 1340.
For the compound `CC1(C)CCCN(CCCC2CCCc3ccccc32)C1` (centres undefined), the values for the Ratio in test [1] and in test [2] were 0.5 and 2, respectively. In addition, the IC50 in test [3] stood at 252 nM; on Sigma 2 receptor, 135 nM.
On to `COc1cccc2c1CCCC2CCCN1CCCC(C)(C)C1` (single isomer, unassigned; (+)) [listing 2 of 2 here], for which the IC50 amounted to 0.089 nM in test [3] and 119 nM on Sigma 2 receptor.
For the compound `COc1cccc2c1CCC2CCCCN1CCCC(C)(C)C1` (centres undefined), the Ratio amounted to 0.5 in test [1] and 2 in test [2]. Besides, the IC50 in test [3] turned out to be 9.3 nM; at Sigma 2 receptor it was 4.6 nM.
Turning to `COc1ccc2c(c1)C(CCCCN1CCCC(C)(C)C1)CCC2` (centres undefined), the Ratio in test [2] was 58. Further, the 50% inhibitory concentration (IC50) worked out at 25.6 nM in test [3] and 0.44 nM at Sigma 2 receptor.
For `CC1(C)CCCN(CCCC2CCCc3c(O)cccc32)C1` (centres undefined), in test [1], the Ratio was 2. Also, the IC50 in test [3] was found to be 41 nM; on Sigma 2 receptor it was 100 nM.
With `COc1ccc2c(c1)CCCC2CCCN1CCCC(C)(C)C1` (centres undefined), the Ratio in test [2] is more than 114. For the same compound, the IC50 in test [3] is more than 10000 nM; at Sigma 2 receptor it was 88 nM.
For `COc1ccc2c(c1)CCC2CCCN1CCCC(C)(C)C1` (centres undefined), in that order: 4610, 4660 nM and 1.01 nM.
Turning to `CC1(C)CCCN(CCC2CCCc3ccccc32)C1` (centres undefined), in test [2], the Ratio was more than 9090. Moreover, the IC50 in test [3] is more than 10000 nM; on Sigma 2 receptor, 1.1 nM.
As for `COc1cccc2c1CCCC2CCCN1CCCC(C)(C)C1` (racemic) [listing 2 of 2 here], the concentration for half-maximal inhibition (IC50) in test [3] was found to be 0.48 nM; on Sigma 2 receptor, 138 nM.
With `CC1(C)CCCN(CCCCC2CCCc3ccccc32)C1` (centres undefined), in test [1], the Ratio was 8. Moreover, the results for the IC50 (in test [3]; at Sigma 2 receptor) were 0.69 nM and 5.5 nM, respectively.
For `COc1cccc2c1CCCC2CCCCN1CCCC(C)(C)C1` (centres undefined), the Ratio in test [2] was 8. Also, the half-inhibitory concentration (IC50) was found to be 978 nM in test [3] and 129 nM on Sigma 2 receptor.
Take `CC1(C)CCCN(CCCCCc2ccccc2)C1`: the Ratio in test [2] was found to be 583. Further, the results for the IC50 (in test [3]; on Sigma 2 receptor) were 5830 nM and 10 nM, respectively.
As to `COc1cccc2c1CCCC2CCCN1CCCC(C)(C)C1` (stereo in doubt; (-)-22) [listing 2 of 2 here], the half-maximal inhibitory concentration (IC50) was 0.85 nM in test [3] and 111 nM on Sigma 2 receptor.
Turning to `CC1(C)CCCN(CCCC2=CCc3ccccc32)C1`, the Ratio in test [1] and in test [2] was 1 each time. Moreover, the figures for the IC50 (in test [3]; at Sigma 2 receptor) were 0.99 nM and 1.09 nM, respectively.
Take `CC1(C)CCCN(CCCCC2=CCCc3ccccc32)C1`: the Ratio in test [2] was 8590. Also, the half-maximal inhibitory concentration (IC50) was determined as 9450 nM in test [3] and 1.1 nM on Sigma 2 receptor.

For the origin of these results see ChEMBL document CHEMBL1131293, “N-[omega-(Tetralin-1-yl)alkyl] derivatives of 3,3-dimethylpiperidine are highly potent and selective sigma1 or sigma2 ligands” (J Med Chem, 1998).
